Measurements taken from patent publication US4031210A, “Antibiotic aminoglycosides, processes of preparation and pharmaceutical compositions” (Roussel-UCLAF, priority 1974, dated 1977).
Where a name gives a salt, the structure may show the parent alone. Read-outs that look alike come from different tables or passages of the source.

Key:
[1] = tested on: Klebsiella Pneumonia No. 52145; assay: In vivo antibacterial activity on experimental Klebsiella Pneumonia infection in mice; conditions: subcutaneous, 1, 5 and 24 hours after infection, 10 mice
Protocol: The antibacterial activity has been measured in vivo on an experimental Klebsiella Pneumonia infection.
40 male mice with a medium weight of 21 grams were divided in 4 series of 10 mice. An intraperitoneal infection with 0.5 ml of a Klebsiella Pneumonia No. 52145 culture in nutritive medium diluted to one thousandth with sterile water is conducted. Treatment is performed by a subcutaneous administration of the product of Example 2, (Product A) three times, (1 hour, 5 hours and 24 hours) after infection. The mortality rate at different times as indicated in the table was measured as well as the number of mice surviving after 8 days.

[2] = tested on: Escherichia coli 156; assay: In vitro antibacterial activity, dilution method in liquid medium; assay type: cell-based; conditions: 37°, expressed as base, read-out: minimal inhibiting concentration (MIC)
Protocol: (§1) The antibacterial activity has been measured in vitro by the dilution method in liquid medium. A series of tubes is prepared in which is distributed the same quantity of nutritive medium. Increasing quantities of the antibiotic under study are distributed, then each tube is innoculated with a bacterial strain as indicated in the table. After a 18, 24 or 48 hour incubation in a 37° oven, inhibition of the bacterial growth is appraised by transillumination which determines the minimal inhibiting concentration (MIC) of the products expressed as μg/ml of base in the table. In the following table, the product of Example 2 is identified as Product A.

[3] = tested on: Escherichia coli 9 911; assay: as above; assay type: cell-based; conditions: 37°, expressed as base, read-out: minimal inhibiting concentration (MIC)
Protocol: as §1

[4] = tested on: Enterobacter aerogenes Co86; assay: as above; assay type: cell-based; conditions: Klebsiella aerogenes, 37°, expressed as base, read-out: minimal inhibiting concentration (MIC)
Protocol: as §1

[5] = tested on: Staphylococcus aureus 40 481; assay: as above; assay type: cell-based; conditions: 37°, expressed as base, read-out: minimal inhibiting concentration (MIC)
Protocol: as §1

[6] = tested on: Salmonella typhimurium 420; assay: as above; assay type: cell-based; conditions: Salmonella enterica, 37°, expressed as base, read-out: minimal inhibiting concentration (MIC)
Protocol: as §1

[7] = tested on: Streptococcus faecalis 99 F 74; assay: as above; assay type: cell-based; conditions: Enterococcus faecalis, 99F74; 18 H incubation, 37°, expressed as base; read-out: minimal inhibiting concentration (MIC)
Protocol: as §1

[8] = tested on: Salmonella anatum 23 348; assay: as above; assay type: cell-based; conditions: Salmonella enterica, 23348, 37°, expressed as base, read-out: minimal inhibiting concentration (MIC)
Protocol: as §1

[9] = tested on: Salmonella typhimurium 1 374; assay: as above; assay type: cell-based; conditions: Salmonella enterica, 37°, expressed as base, read-out: minimal inhibiting concentration (MIC)
Protocol: as §1

[10] = tested on: Enterobacter aerogenes Co11; assay: as above; assay type: cell-based; conditions: Klebsiella aerogenes, 37°, expressed as base, read-out: minimal inhibiting concentration (MIC)
Protocol: as §1

[11] = tested on: Staphylococcus aureus 40 821; assay: as above; assay type: cell-based; conditions: 37°, expressed as base, read-out: minimal inhibiting concentration (MIC)
Protocol: as §1

[12] = tested on: Serratia marcesens CoB 35; assay: as above; assay type: cell-based; conditions: 37°, expressed as base, read-out: minimal inhibiting concentration (MIC)
Protocol: as §1

[13] = tested on: Staphylococcus aureus 40 511; assay: as above; assay type: cell-based; conditions: 37°, expressed as base, read-out: minimal inhibiting concentration (MIC)
Protocol: as §1

[14] = tested on: Staphylococcus aureus 38 691; assay: as above; assay type: cell-based; conditions: 37°, expressed as base, read-out: minimal inhibiting concentration (MIC)
Protocol: as §1

[15] = tested on: Escherichia coli 9 965; assay: as above; assay type: cell-based; conditions: 37°, expressed as base, read-out: minimal inhibiting concentration (MIC)
Protocol: as §1

[16] = total dose 0,03 mg (as free base)

**Q.** For `CNC1CC(C)OC(OC2C(N)CC(N)C(OC3OC(CN)C(O)CC3N)C2O)C1O` [Product A, 4-0-[2',6'-diamino 2', 3', 6'-tridesoxy α, D-ribohexopyranosyl] 6-0-[3"-methylamino 3",4",6"-tridesoxy α, D-xylohexopyranosyl] 2-desoxy streptamine sulfate], which “Mortality at 5 H” value [1, 16] is on record?
**A.** Its value is 1.

**Q.** What about the “Survived to the eighth day (number of mice)” value (from here on “Survived to the eighth day”) [1, 16] of the same molecule?
**A.** Its value is 9 mice.

**Q.** What about the “Survived to the eighth day” value ([1]; total dose 0,05 mg (as free base)) of the same molecule?
**A.** The value was 10 mice.

**Q.** What about the “Survived to the eighth day” value ([1]; total dose 0,075 mg (as free base)) of the same molecule?
**A.** Its value is 10 mice.

**Q.** What about the MIC ([2]; 18 H incubation) of the same molecule?
**A.** Its MIC is 0.4 µg/mL.

**Q.** What about the MIC ([2]; 24 H incubation) of the same molecule?
**A.** Its MIC is 0.6 µg/mL.

**Q.** What about the MIC ([2]; 48 H incubation) of the same molecule?
**A.** Its MIC is 1 µg/mL.

**Q.** And the MIC ([3]; 9911, 18 H incubation)?
**A.** Its MIC is 0.6 µg/mL.

**Q.** What about the MIC ([3]; 9911, 24 H incubation) of the same molecule?
**A.** Its MIC is 0.6 µg/mL.

**Q.** And the MIC ([3]; 9911, 48 H incubation)?
**A.** Its MIC is 0.2 µg/mL.

**Q.** And the MIC ([4]; 18 H incubation)?
**A.** The MIC was 0.6 µg/mL.

**Q.** And the MIC ([4]; 24 H incubation)?
**A.** The MIC was 0.6 µg/mL.

**Q.** And the MIC ([4]; 48 H incubation)?
**A.** Its MIC is 0.6 µg/mL.

**Q.** And the MIC ([5]; 40481, 18 H incubation)?
**A.** Its MIC is 0.1 µg/mL.

**Q.** And the MIC ([5]; 40481, 24 H incubation)?
**A.** The MIC was 0.1 µg/mL.

**Q.** And the MIC ([5]; 40481, 48 H incubation)?
**A.** Its MIC is 0.2 µg/mL.

**Q.** And the MIC ([6]; 18 H incubation)?
**A.** The MIC was 2 µg/mL.

**Q.** And the MIC ([6]; 24 H incubation)?
**A.** Its MIC is 5 µg/mL.

**Q.** What about the MIC ([6]; 48 H incubation) of the same molecule?
**A.** Its MIC is 20 µg/mL.

**Q.** And the MIC [7]?
**A.** The MIC was over 20 µg/mL.

**Q.** And the MIC ([8]; 18 H incubation)?
**A.** The MIC was 1 µg/mL.

**Q.** What about the MIC ([8]; 24 H incubation) of the same molecule?
**A.** The MIC was 3 µg/mL.

**Q.** What about the MIC ([8]; 48 H incubation) of the same molecule?
**A.** Its MIC is 15 µg/mL.

**Q.** What about the MIC ([9]; 18 H incubation) of the same molecule?
**A.** Its MIC is 1 µg/mL.

**Q.** What about the MIC ([9]; 24 H incubation) of the same molecule?
**A.** The MIC was 5 µg/mL.

**Q.** What about the MIC ([9]; 48 H incubation) of the same molecule?
**A.** The MIC was 10 µg/mL.

**Q.** What about the MIC ([10]; 18 H incubation) of the same molecule?
**A.** Its MIC is 0.4 µg/mL.

**Q.** And the MIC ([10]; 24 H incubation)?
**A.** The MIC was 0.4 µg/mL.

**Q.** And the MIC ([10]; 48 H incubation)?
**A.** Its MIC is 1 µg/mL.

**Q.** And the MIC ([11]; 40821, 18 H incubation)?
**A.** Its MIC is 0.1 µg/mL.

**Q.** What about the MIC ([11]; 40821, 24 H incubation) of the same molecule?
**A.** The MIC was 0.1 µg/mL.

**Q.** And the MIC ([11]; 40821, 48 H incubation)?
**A.** Its MIC is 0.1 µg/mL.

**Q.** What about the MIC ([12]; COB35, 18 H incubation) of the same molecule?
**A.** The MIC was 10 µg/mL.

**Q.** What about the MIC ([12]; COB35, 24 H incubation) of the same molecule?
**A.** The MIC was 40 µg/mL.

**Q.** What about the MIC ([12]; COB35, 48 H incubation) of the same molecule?
**A.** The MIC was 40 µg/mL.

**Q.** And the MIC ([13]; 40511, 18 H incubation)?
**A.** The MIC was 0.2 µg/mL.

**Q.** And the MIC ([13]; 40511, 24 H incubation)?
**A.** The MIC was 0.6 µg/mL.

**Q.** What about the MIC ([13]; 40511, 48 H incubation) of the same molecule?
**A.** Its MIC is 1 µg/mL.

**Q.** What about the MIC ([14]; 38691, 24 H incubation) of the same molecule?
**A.** The MIC was 0.1 µg/mL.

**Q.** And the MIC ([14]; 38691, 48 H incubation)?
**A.** The MIC was 0.1 µg/mL.

**Q.** What about the MIC ([15]; 9965, 18 H incubation) of the same molecule?
**A.** Its MIC is 0.6 µg/mL.

**Q.** What about the MIC ([15]; 9965, 24 H incubation) of the same molecule?
**A.** The MIC was 1 µg/mL.

**Q.** What about the MIC ([15]; 9965, 48 H incubation) of the same molecule?
**A.** Its MIC is 2 µg/mL.
